Like-named read-outs stand apart in the source and are kept apart here.
How the values were obtained:
[1] = molecular target: rat mGlu2 receptor (Rattus norvegicus (Rat), UniProt P31421); test: mGlu2 in vitro GIRK thallium flux assay; type: cell-based; details: NAM, EC80 glutamate, HEK-293 GIRK cells
Method in brief: (§1)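 Cells expressing rat mGlu2 or mGlu3 with GIRK, plated overnight at 37 °C. Test compounds (0.3% DMSO, 10-point 1:3 series) preincubated 2.5 or 60 min, then thallium buffer plus EC80 glutamate added. Fluorescence slope 5–15 s after addition, normalised to vehicle and maximal agonist, fitted by four-parameter logistic.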

[2] = molecular target: rat mGlu3 receptor (Rattus norvegicus (Rat), UniProt P31422); test: mGlu3 in vitro GIRK thallium flux assay; type: cell-based; details: NAM; 2.5 min compound incubation; EC80 glutamate; HEK-293 GIRK cells
Sequence of rat mGlu3 receptor (P31422 23-879): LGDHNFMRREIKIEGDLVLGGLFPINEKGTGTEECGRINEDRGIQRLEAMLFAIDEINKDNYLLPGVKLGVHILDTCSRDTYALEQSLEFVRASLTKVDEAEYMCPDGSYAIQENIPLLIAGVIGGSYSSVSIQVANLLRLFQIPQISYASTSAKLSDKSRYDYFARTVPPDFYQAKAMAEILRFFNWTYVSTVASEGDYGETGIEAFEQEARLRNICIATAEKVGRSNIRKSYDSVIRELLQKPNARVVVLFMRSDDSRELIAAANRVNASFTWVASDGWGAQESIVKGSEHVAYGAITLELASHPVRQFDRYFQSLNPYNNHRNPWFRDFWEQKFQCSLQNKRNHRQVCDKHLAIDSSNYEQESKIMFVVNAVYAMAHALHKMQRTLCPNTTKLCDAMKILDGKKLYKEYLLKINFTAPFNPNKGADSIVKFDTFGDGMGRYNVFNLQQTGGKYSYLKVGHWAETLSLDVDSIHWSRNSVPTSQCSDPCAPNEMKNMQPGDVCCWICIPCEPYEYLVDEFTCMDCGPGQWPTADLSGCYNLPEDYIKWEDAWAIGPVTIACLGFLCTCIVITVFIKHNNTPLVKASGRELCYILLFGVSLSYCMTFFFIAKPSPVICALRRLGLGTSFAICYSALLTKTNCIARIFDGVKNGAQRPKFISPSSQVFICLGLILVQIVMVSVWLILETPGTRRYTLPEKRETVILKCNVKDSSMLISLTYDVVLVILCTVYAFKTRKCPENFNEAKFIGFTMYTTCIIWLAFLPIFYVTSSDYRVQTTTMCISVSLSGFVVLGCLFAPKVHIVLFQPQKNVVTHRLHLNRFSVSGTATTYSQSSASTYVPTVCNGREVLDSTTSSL
Method in brief: as §1

[3] = 2.5 min compound incubation, read-out: mGlu2 EC50 (μM) (2.5 min)
[4] = read-out: mGlu2 EC50 (μM) (60 min), 60 min compound incubation

Sequence of rat mGlu2 receptor (P31421 19-872): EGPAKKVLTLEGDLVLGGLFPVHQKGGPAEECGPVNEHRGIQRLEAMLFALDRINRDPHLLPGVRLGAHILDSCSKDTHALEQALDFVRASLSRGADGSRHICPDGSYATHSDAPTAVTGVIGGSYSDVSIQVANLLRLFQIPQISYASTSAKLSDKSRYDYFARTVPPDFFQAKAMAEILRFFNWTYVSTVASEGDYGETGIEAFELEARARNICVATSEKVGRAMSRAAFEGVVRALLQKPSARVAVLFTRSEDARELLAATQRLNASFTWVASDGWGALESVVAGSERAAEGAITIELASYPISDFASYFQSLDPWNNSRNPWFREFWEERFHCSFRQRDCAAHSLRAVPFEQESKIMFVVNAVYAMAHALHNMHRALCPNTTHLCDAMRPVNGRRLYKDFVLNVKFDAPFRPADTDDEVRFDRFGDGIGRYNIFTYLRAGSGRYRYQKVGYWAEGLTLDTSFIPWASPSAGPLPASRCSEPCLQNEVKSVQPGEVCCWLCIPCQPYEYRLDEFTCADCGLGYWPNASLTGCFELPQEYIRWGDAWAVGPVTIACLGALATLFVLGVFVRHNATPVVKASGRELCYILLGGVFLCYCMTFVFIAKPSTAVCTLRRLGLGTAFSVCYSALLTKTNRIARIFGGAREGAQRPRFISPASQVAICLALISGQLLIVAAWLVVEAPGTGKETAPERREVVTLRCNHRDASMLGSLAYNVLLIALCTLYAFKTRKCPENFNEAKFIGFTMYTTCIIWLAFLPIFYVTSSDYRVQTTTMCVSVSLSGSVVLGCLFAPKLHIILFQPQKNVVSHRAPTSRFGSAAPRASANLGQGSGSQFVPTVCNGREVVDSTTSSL

| Compound | EC50 [1, 3] | EC50 [1, 4] | EC50 [2] |
| --- | --- | --- | --- |
| O=C(O)c1cccc(-c2cccc(-c3cc(-c4ccccc4)[nH]n3)c2)c1 [Example 68, 3′-(5-Phenyl-1H-pyrazol-3-yl)-[1,1′-biphenyl]-3-carboxylic Acid] | > 10 µM | > 30 µM | > 10 µM |
| O=C(O)c1cccc(-c2cccc(-c3nc(-c4ccc(C(F)(F)F)nc4)cc(C(F)(F)F)n3)c2)c1 [Example 69, 3′-(4-(Trifluoromethyl)-6-(6-(trifluoromethyl)pyridin-3-yl)pyrimidin-2-yl)biphenyl-3-carboxylic Acid] | 0.95 µM | 0.11 µM | 1.07 µM |
| O=C(O)c1cc(-c2cccc(-c3nc(-c4ccc(C(F)(F)F)nc4)cc(C(F)(F)F)n3)c2)ccc1Cl [Example 70, 4-Chloro-3′-(4-(trifluoromethyl)-6-(6-(trifluoromethyl)pyridin-3-yl)pyrimidin-2-yl)biphenyl-3-carboxylic Acid] | 1.26 µM | 0.2 µM | 1.58 µM |
| O=C(O)c1ccc(-c2cccc(-c3nc(-c4ccc(C(F)(F)F)nc4)cc(C(F)(F)F)n3)c2)cc1 [Example 71, 3′-(4-(Trifluoromethyl)-6-(6-(trifluoromethyl)pyridin-3-yl)pyrimidin-2-yl)biphenyl-4-carboxylic Acid] | > 10 µM | > 10 µM | > 10 µM |
| O=C(O)c1ccccc1-c1cccc(-c2nc(-c3ccc(C(F)(F)F)nc3)cc(C(F)(F)F)n2)c1 [Example 72, 3′-(4-(Trifluoromethyl)-6-(6-(trifluoromethyl)pyridin-3-yl)pyrimidin-2-yl)biphenyl-2-carboxylic Acid] | > 10 µM | > 10 µM | > 10 µM |
| O=C(O)c1ccc(-c2cccc(-c3nc(-c4ccc(C(F)(F)F)nc4)cc(C(F)(F)F)n3)c2)cc1Cl [Example 74, 3-Chloro-3′-(4-(trifluoromethyl)-6-(6-(trifluoromethyl)pyridin-3-yl)pyrimidin-2-yl)biphenyl-4-carboxylic Acid] | 6.76 µM | > 10 µM | 6.52 µM |
| O=C(O)c1cc(-c2cccc(-c3nc(-c4ccc(C(F)(F)F)nc4)cc(C(F)(F)F)n3)c2)cc([N+](=O)[O-])c1 [Example 75, 5-Nitro-3′-(4-(trifluoromethyl)-6-(6-(trifluoromethyl)pyridin-3-yl)pyrimidin-2-yl)biphenyl-3-carboxylic Acid] | 1.27 µM | 0.5 µM | > 10 µM |
| COc1ccc(C(=O)O)cc1-c1cccc(-c2nc(-c3ccc(C(F)(F)F)nc3)cc(C(F)(F)F)n2)c1 [Example 77, 6-Methoxy-3′-(4-(trifluoromethyl)-6-(6-(trifluoromethyl)pyridin-3-yl)pyrimidin-2-yl)biphenyl-3-carboxylic Acid] | 0.96 µM | 0.29 µM | 1.59 µM |
| O=C(O)c1ccc(-c2cccc(-c3nc(-c4ccc(C(F)(F)F)nc4)cc(C(F)(F)F)n3)c2)c(Cl)c1 [Example 78, 2-Chloro-3′-(4-(trifluoromethyl)-6-(6-(trifluoromethyl)pyridin-3-yl)pyrimidin-2-yl)biphenyl-4-carboxylic Acid] | 3.49 µM | 1.18 µM | 6.32 µM |
| O=C(O)c1ccc(-c2cccc(-c3nc(-c4ccc(C(F)(F)F)nc4)cc(C(F)(F)F)n3)c2)s1 [Example 80, 5-(3-(4-(Trifluoromethyl)-6-(6-(trifluoromethyl)pyridin-3-yl)pyrimidin-2-yl)phenyl)thiophene-2-carboxylic Acid] | 0.78 µM | 0.13 µM | 2.4 µM |
| O=C(O)c1ccc(-c2ccc(-c3nc(-c4ccc(C(F)(F)F)nc4)cc(C(F)(F)F)n3)cc2)cc1 [Example 81, 4′-(4-(Trifluoromethyl)-6-(6-(trifluoromethyl)pyridin-3-yl)pyrimidin-2-yl)biphenyl-4-carboxylic Acid] | 3.78 µM | 0.44 µM | 2.13 µM |
| O=C(O)c1cc(-c2ccc(-c3nc(-c4ccc(C(F)(F)F)nc4)cc(C(F)(F)F)n3)cc2)ccc1F [Example 82, 4-Fluoro-4′-(4-(trifluoromethyl)-6-(6-(trifluoromethyl)pyridin-3-yl)pyrimidin-2-yl)biphenyl-3-carboxylic Acid] | 1.42 µM | 0.49 µM | 1.32 µM |
| O=C(O)c1cc(-c2ccc(-c3nc(-c4ccc(C(F)(F)F)nc4)cc(C(F)(F)F)n3)cc2)ccc1Cl [Example 83, 4-Chloro-4′-(4-(trifluoromethyl)-6-(6-(trifluoromethyl)pyridin-3-yl)pyrimidin-2-yl)biphenyl-3-carboxylic Acid] | 2.95 µM | 1.23 µM | > 10 µM |
| O=C(O)c1cc(F)cc(-c2ccc(-c3nc(-c4ccc(C(F)(F)F)nc4)cc(C(F)(F)F)n3)cc2)c1 [Example 84, 5-Fluoro-4′-(4-(trifluoromethyl)-6-(6-(trifluoromethyl)pyridin-3-yl)pyrimidin-2-yl)biphenyl-3-carboxylic Acid] | 2.79 µM |  | 4.91 µM |
| CNC(=O)c1cc(-c2cccc(-c3nc(-c4ccc(C(F)(F)F)nc4)cc(C(F)(F)F)n3)c2)ccc1Cl [Example 85, 4-Chloro-N-methyl-3′-(4-(trifluoromethyl)-6-(6-(trifluoromethyl)pyridin-3-yl)pyrimidin-2-yl)biphenyl-3-carboxamide] | > 30 µM | > 10 µM | > 30 µM |
| O=C(O)c1cc(-c2cccc(-c3nc(-c4cccs4)cc(C(F)(F)F)n3)c2)ccc1F [Example 87A, 4-Fluoro-3′-(4-(thiophen-2-yl)-6-(trifluoromethyl)pyrimidin-2-yl)biphenyl-3-carboxylic Acid] | 1.12 µM | 0.24 µM | 1.26 µM |
| O=C(O)c1cc(-c2cccc(-c3nc(-c4ccco4)cc(C(F)(F)F)n3)c2)ccc1F [Example 88, 4-Fluoro-3′-(4-(furan-2-yl)-6-(trifluoromethyl)pyrimidin-2-yl)biphenyl-3-carboxylic Acid] | 0.68 µM | 0.34 µM | 1.13 µM |
| COc1ccc(-c2cccc(-c3nc(-c4ccco4)cc(C(F)(F)F)n3)c2)cc1C(=O)O [Example 90, 3′-(4-(Furan-2-yl)-6-(trifluoromethyl)pyrimidin-2-yl)-4-methoxybiphenyl-3-carboxylic Acid] | 3.68 µM | 2.49 µM | > 10 µM |
| Cc1ccccc1-c1cc(C(F)(F)F)nc(-c2cccc(-c3ccc(F)c(C(=O)O)c3)c2)n1 [Example 91, 4-Fluoro-3′-(4-o-tolyl-6-(trifluoromethyl)pyrimidin-2-yl)biphenyl-3-carboxylic acid] | 1.52 µM | 0.28 µM | > 10 µM |
| Cc1cccc(-c2cc(C(F)(F)F)nc(-c3cccc(-c4ccc(F)c(C(=O)O)c4)c3)n2)c1 [Example 92, 4-Fluoro-3′-(4-m-tolyl-6-(trifluoromethyl)pyrimidin-2-yl)biphenyl-3-carboxylic Acid] | 2.79 µM | 0.4 µM | 3.37 µM |
| Cc1cc(C)cc(-c2cc(C(F)(F)F)nc(-c3cccc(-c4ccc(F)c(C(=O)O)c4)c3)n2)c1 [Example 93, 3′-(4-(3,5-Dimethylphenyl)-6-(trifluoromethyl)pyrimidin-2-yl)-4-fluorobiphenyl-3-carboxylic Acid] | > 10 µM | 1.6 µM | > 10 µM |
| O=C(O)c1cc(-c2cccc(-c3nc(/C=C/c4ccccc4)cc(C(F)(F)F)n3)c2)ccc1F [Example 95, (E)-4-Fluoro-3′-(4-styryl-6-(trifluoromethyl)pyrimidin-2-yl)biphenyl-3-carboxylic Acid] | > 10 µM |  | > 10 µM |
| CC(C)(C)c1ccc(-c2cc(C(F)(F)F)nc(-c3cccc(-c4ccc(F)c(C(=O)O)c4)c3)n2)cc1 [Example 96, 3′-(4-(4-tert-Butylphenyl)-6-(trifluoromethyl)pyrimidin-2-yl)-4-fluorobiphenyl-3-carboxylic Acid] | 5.38 µM | 1.08 µM | 6.11 µM |
| O=C(O)c1cc(-c2cccc(-c3nc(-c4cccnc4F)cc(C(F)(F)F)n3)c2)ccc1F [Example 97, 4-Fluoro-3′-(4-(2-fluoropyridin-3-yl)-6-(trifluoromethyl)pyrimidin-2-yl)biphenyl-3-carboxylic Acid] | 1.07 µM | 0.36 µM | 2.21 µM |
| O=C(O)c1cc(-c2cccc(-c3nc(-c4ccc(Cl)cc4)cc(C(F)(F)F)n3)c2)ccc1F [Example 98, 3′-(4-(4-Chlorophenyl)-6-(trifluoromethyl)pyrimidin-2-yl)-4-fluorobiphenyl-3-carboxylic Acid] | 2.87 µM | 0.35 µM | 2.47 µM |
| COc1ccc(-c2cc(C(F)(F)F)nc(-c3cccc(-c4ccc(F)c(C(=O)O)c4)c3)n2)cc1OC [Example 99, 3′-(4-(3,4-Dimethoxyphenyl)-6-(trifluoromethyl)pyrimidin-2-yl)-4-fluorobiphenyl-3-carboxylic Acid] | > 10 µM | 1.3 µM | 2.83 µM |
| O=C(O)c1cc(-c2cccc(-c3nc(-c4ccccc4F)cc(C(F)(F)F)n3)c2)ccc1F [Example 100, 4-Fluoro-3′-(4-(2-fluorophenyl)-6-(trifluoromethyl)pyrimidin-2-yl)biphenyl-3-carboxylic Acid] | 1.21 µM | 0.16 µM | 2.21 µM |
| O=C(O)c1cc(-c2cccc(-c3nc(-c4cc5ccccc5o4)cc(C(F)(F)F)n3)c2)ccc1F [Example 101, 3′-(4-(Benzofuran-2-yl)-6-(trifluoromethyl)pyrimidin-2-yl)-4-fluorobiphenyl-3-carboxylic Acid] | > 10 µM | 0.95 µM | > 10 µM |

Reference: US9969726B2, “Metabotropic glutamate receptor negative allosteric modulators (NAMS) and uses thereof” (Sanford-Burnham Medical Research Institute, priority 2014, dated 2018)
